{"source": "patent US11191738B2", "about": "“Use of tamoxifen for the treatment of cystic fibrosis in patients of both sexes” (GB PHARMA S.R.L., priority 2016, dated 2021)", "key": {"[1]": {"tested_on": "Ca-dependent chloride channels", "experiment": "patch clamp, perforated whole-cell configuration, chloride currents in CF bronchial epithelial cells", "type": "cell-based", "experimental": "Our experiments were carried out on homozygous CFBE cells leading the F508del/F508 del mutation and on IB3-1 cells (immortalized cell line of bronchial epithelium cystic fibrosis cells, which bring F508del/W1282X mutation).\n(§1) The chloride currents through the Ca-dependent chloride channels were measured using the patch clamp technique in perforated whole-cell configuration. The whole-cell configuration was obtained not by breaking the membrane below the electrode, but thanks to the action of an ionophore (gramicidin, 10 μg/ml) which, forming pores through the membrane, guarantees electrical continuity between the solution for the electrode and the cytoplasm, while maintaining the cellular integrity. Thus, cytoplasmic components that might be important to the maintenance of channel activity are not removed after dialysis of the cytoplasm with the solution contained in the electrode. […]\nThe solution for the electrode contained (mM): 145 KCl, 1 MgCl2, 10 HEPES, pH 7,25. […] The bath solution was hypertonic (measured osmolarity 337 mOsm) with respect to that of the electrode to inhibit the currents activated by swelling, present in the cells used also in isosmolarity conditions of the bath solution (as noted in previously carried out whole-cell experiments). […]"}, "CFTR channel": {"target": "T1, CFTR channel (Homo sapiens, UniProt P13569, DEL508-508)", "T1 construct": "having recorded the I/V in cells treated with tamoxifen for 24 hours; endogenous in cells; host or cells: CFBE (F508del/F508del) or IB3-1 (F508del/W1282X) cells", "T1 sequence (P13569 with tags, fused parts or gaps DEL508-508)": "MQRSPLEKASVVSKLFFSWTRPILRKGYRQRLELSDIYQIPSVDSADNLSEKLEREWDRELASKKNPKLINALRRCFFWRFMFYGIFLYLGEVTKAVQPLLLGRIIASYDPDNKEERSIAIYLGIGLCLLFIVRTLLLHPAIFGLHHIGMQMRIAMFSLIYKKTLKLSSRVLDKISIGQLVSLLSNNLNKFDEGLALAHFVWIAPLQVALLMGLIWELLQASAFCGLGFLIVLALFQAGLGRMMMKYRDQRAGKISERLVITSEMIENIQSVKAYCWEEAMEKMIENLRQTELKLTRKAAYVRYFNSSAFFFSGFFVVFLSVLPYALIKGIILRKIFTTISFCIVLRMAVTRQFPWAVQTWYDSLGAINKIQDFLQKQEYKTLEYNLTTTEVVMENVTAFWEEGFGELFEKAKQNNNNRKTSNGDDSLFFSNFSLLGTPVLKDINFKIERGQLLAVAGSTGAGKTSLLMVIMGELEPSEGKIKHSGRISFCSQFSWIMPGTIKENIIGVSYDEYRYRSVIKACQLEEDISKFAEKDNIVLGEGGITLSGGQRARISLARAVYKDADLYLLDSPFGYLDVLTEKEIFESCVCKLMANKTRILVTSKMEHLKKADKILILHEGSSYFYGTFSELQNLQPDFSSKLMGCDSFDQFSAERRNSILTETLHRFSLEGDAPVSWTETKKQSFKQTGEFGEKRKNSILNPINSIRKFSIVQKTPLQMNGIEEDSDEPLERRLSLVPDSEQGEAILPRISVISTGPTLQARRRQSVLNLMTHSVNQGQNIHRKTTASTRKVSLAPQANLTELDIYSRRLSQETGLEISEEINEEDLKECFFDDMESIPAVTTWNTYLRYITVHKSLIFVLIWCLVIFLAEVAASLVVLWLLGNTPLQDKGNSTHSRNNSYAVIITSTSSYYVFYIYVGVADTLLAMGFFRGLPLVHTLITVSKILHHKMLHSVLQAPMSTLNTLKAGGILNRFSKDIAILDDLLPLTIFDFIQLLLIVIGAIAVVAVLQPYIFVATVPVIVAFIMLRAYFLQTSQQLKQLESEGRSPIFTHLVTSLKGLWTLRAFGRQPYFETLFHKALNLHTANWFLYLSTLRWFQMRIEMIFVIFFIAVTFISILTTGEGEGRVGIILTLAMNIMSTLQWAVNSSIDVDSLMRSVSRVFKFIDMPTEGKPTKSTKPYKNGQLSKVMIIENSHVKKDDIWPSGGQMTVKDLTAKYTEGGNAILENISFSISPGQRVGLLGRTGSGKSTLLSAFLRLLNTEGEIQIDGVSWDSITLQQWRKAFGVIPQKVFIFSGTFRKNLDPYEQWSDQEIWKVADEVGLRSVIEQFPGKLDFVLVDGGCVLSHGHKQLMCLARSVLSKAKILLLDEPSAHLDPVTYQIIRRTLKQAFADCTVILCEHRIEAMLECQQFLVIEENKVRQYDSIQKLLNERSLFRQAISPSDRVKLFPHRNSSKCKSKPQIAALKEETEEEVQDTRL", "experiment": "patch clamp chloride currents in tamoxifen-treated cells with CFTR inhibitor", "type": "cell-based", "details": "cells treated with tamoxifen 5 μM for 24 hours, then tamoxifen + CFTR inh (FIG. 3)", "experimental": "as §1\nThe solution for the electrode contained (mM): 145 KCl, 1 MgCl2, 10 HEPES, pH 7,25. […] The bath solution was hypertonic (measured osmolarity 337 mOsm) with respect to that of the electrode to inhibit the currents activated by swelling, present in the cells used also in isosmolarity conditions of the bath solution (as noted in previously carried out whole-cell experiments).\nFinally, in order to evaluate a possible action of tamoxifen on the CFTR channel, having recorded the I/V in cells treated with tamoxifen for 24 hours, the replacement of the solution with one containing tamoxifen and CFTR inh (specific inhibitor of CFTR) (FIG. 3) was carried out."}}}
{"smiles": "CC/C(=C(\\c1ccccc1)c1ccc(OCCN(C)C)cc1)c1ccccc1", "note": "[tamoxifen]", "values": [{"measurement": "current density compared to control conditions", "setting": "[1]; CFBE or IB3-1 cells incubated 40 minutes with tamoxifen 5 μM (FIG. 1)", "value": "significantly increased"}, {"measurement": "effect on Ca-dependent chloride currents over time", "setting": "[1]; cells incubated with 5 μM tamoxifen for 24 hours (FIG. 2)", "value": "remains almost unchanged over time"}, {"measurement": "effect on chloride currents in the presence of the inhibitor of CFTR", "setting": "CFTR channel", "value": "does not change significantly"}]}
